Drawing on patent publication US7288653B2, “Inhibitors of proton-gated cation channels and their use in the treatment of ischaemic disorders” (PainCeptor Pharma Corporation, priority 1999, dated 2007), this text covers IC50 and melting point for 25 compounds.

SMILES strings stand for the structures. Where only a bound is given, the exact number is not on record here.

The target of the first data set is T1, naturally occurring proton-gated cation channel in a HEK293 cell (Homo sapiens, UniProt P78348).
T1 construct: a naturally occurring proton-gated cation channel in a HEK293 cell; endogenous in cells; host or cells: HEK293
T1 sequence (P78348 1-528): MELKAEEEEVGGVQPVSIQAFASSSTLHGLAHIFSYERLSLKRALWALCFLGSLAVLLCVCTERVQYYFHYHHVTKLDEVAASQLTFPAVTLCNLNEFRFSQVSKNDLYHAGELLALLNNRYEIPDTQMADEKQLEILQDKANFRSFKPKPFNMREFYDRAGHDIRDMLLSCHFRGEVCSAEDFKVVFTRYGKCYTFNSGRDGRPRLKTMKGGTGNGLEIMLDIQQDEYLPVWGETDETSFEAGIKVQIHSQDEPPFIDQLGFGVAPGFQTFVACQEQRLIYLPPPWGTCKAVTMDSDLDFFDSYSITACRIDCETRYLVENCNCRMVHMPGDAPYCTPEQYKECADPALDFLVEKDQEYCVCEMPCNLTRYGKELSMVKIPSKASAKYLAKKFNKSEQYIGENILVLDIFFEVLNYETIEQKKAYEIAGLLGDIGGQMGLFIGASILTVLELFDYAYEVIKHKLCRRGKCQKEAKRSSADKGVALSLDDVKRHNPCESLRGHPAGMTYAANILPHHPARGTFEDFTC
Put plainly: Patch clamp of whole cell currents elicited by a drop in extracellular pH in HEK293 cells. It is filed as cell-based. As to conditions: extracellular pH drop from 7.4 to 6.5, group IC50 below 100 nM, read-out: IC50, inhibition of the proton activated response. On the procedure: In this example the current flux induced by protons over the membrane of a naturally occurring proton-gated cation channel in a HEK293 cell was determined using patch clamp techniques.
Using this technique, the effects of the compounds for use according to the invention was investigated on whole cell currents elicited by a drop in extracellular pH from 7.4 to 6.5.
(The patch-clamp technique gives a direct electrical read-out from membranes.)
A word on the IC50: it is the concentration at which inhibition is half-maximal. On to `CC(=O)ON=C1C(=O)Nc2c1cc(-c1ccccc1)c1c2CN(C)CC1` [8-methyl-5-phenyl-6,7,8,9-tetrahydro-1H-pyrrolo-[3,2-h]-isoquinoline-2,3-dione-3-acetyloxim], for which the 50% inhibitory concentration (IC50) is under 100 nM.

Take `CCN1CCc2c(-c3ccccc3)cc3c(c2C1)NC(=O)/C3=N/O` [8-ethyl-5-phenyl-6-7-8-9-tetrahydro-1H-pyrrolo-[3,2-h]-isoquinoline-2,3-dione-3-oxim]: the IC50 is under 100 nM.

On to `CN1CCc2c(-c3ccccc3)cc3c(c2C1)NC(=O)C3=NO` [8-methyl-5-phenyl-6-7-8-9-tetrahydro-1H-pyrrolo-[3,2-h]-isoquinoline-2,3-dione-3-oxim], for which the half-inhibitory concentration (IC50) was under 100 nM.

With `CN1Cc2c(-c3ccccc3)cc3c(c2C1)NC(=O)C3=NO` [7-methyl-5-phenyl-1-6-7-8-tetrahydrobenzo-[2,1-b:3,4-c]-dipyrrole-2,3-dione-3-oxime], the concentration for half-maximal inhibition (IC50) was under 100 nM.

As for `CN1CCc2c(-c3ccc(Cl)cc3)cc3c(c2C1)NC(=O)C3=NO` [5-(4-chlorophenyl)-8-methyl-6-7-8-9-tetrahydro-1-H-pyrrolo-[3,2-h]-isoquinoline-2,3-dione-3-oxim], the IC50 was under 100 nM.

Consider `CN1Cc2c(-c3cccc4ccccc34)cc3c(c2C1)NC(=O)C3=NO` [7-methyl-5-(1-naphthyl)-1-6-7-8-tetrahydrobenzo-[2,1-b:3,4-c]-dipyrrole-2,3-dione-3-oxime], for which the IC50 is under 100 nM.

Take `CN1CCc2c(-c3ccc(F)cc3)cc3c(c2C1)NC(=O)C3=NO` [8-methyl-5-(4-fluorophenyl)-6,7,8,9-tetrahydro-1H-pyrrolo-[3,2-h]-isoquinoline-2,3-dione-3-oxim]: the IC50 was under 100 nM.

Staying with this data set, now noted: extracellular pH drop from 7.4 to 6.5, group IC50 below 1 μM (of from 100 nM to 1 μM), read-out: IC50, inhibition of the proton activated response.
In the case of `O=C1Nc2c(cc(-c3ccccc3)c3c2CN(Cc2ccccc2)CC3)C1=NO` [8-benzyl-5-phenyl-6-7-8-9-tetrahydro-1H-pyrrolo-[3,2-h]-isoquinoline-2,3-dione-3-oxim], the IC50 was under 1000 nM.

Regarding `CN1CCc2c(-c3ccccc3)cc3c(c2C1)NC(=O)C3=NOC(=O)C(C)(C)C` [8-methyl-5-phenyl-6-7-8-9-tetrahydro-1-H-pyrrolo-[3.2-h]-isoquinoline-2,3-dione-3-O-2,2-dimethylpropanoyl-oxim], the IC50 is under 1000 nM.

As to `CN1CCc2c(-c3ccc4ccccc4c3)cc3c(c2C1)NC(=O)C3=NO` [5-(2-naphthyl)-8-methyl-6-7-8-9-tetrahydro-1-H-pyrrolo-[3.2-h]-isoquinoline-2,3-dione-3-oxim], the IC50 is under 1000 nM.

For `O=C1Nc2c(cc(-c3ccccc3)c3c2CNCC3)C1=NO` [5-phenyl-6-7-8-9-tetrahydro-1H-pyrrolo-[3,2-h]-isoquinoline-2,3-dione-3-oxim], the IC50 was under 1000 nM.

For `CN1CCc2c(-c3ccc(S(=O)(=O)N(C)C)cc3)cc3c(c2C1)NC(=O)C3=NO` [8-methyl-5-(4-(N,N-dimethylsulfamoyl)-phenyl)-6,7,8,9-tetrahydro-1H-pyrrolo-[3,2-h]-isoquinoline-2,3-dione-3-oxime], the IC50 is under 1000 nM.

As to `CN1Cc2c(-c3ccccc3)cc3c(c2C1)NC(=O)C3=NO` [7-methyl-5-phenyl-1-6-7-8-tetrahydrobenzo-[2,1-b:3,4-c]-dipyrrole-2,3-dione-3-oxime], the IC50 was under 1000 nM.

On to `CCN1Cc2c(-c3ccccc3)cc3c(c2C1)NC(=O)C3=NO` [7-ethyl-5-phenyl-1-6-7-8-tetrahydrobenzo-[2,1-b:3,4-c]-dipyrrole-2,3-dione-3-oxime], for which the concentration for half-maximal inhibition (IC50) is under 1000 nM.

`CON=C1C(=O)Nc2c1cc(-c1ccccc1)c1c2CN(C)CC1` [8-methyl-5-phenyl-6-7-8-9-tetrahydro-1H-pyrrolo-[3,2-h]-isoquinoline-2,3-dione-3-methyloxim]: the half-maximal inhibitory concentration (IC50) is under 1000 nM.

As for `COc1cccc(-c2cc3c(c4c2CCN(C)C4)NC(=O)/C3=N\O)c1` [8-methyl-5-(3-methoxyphenyl)-6-7-8-9-tetrahydro-1-H-pyrrolo-[3.2-h]-isoquinoline-2,3-dione-3-oxim], the IC50 is under 1000 nM.

Regarding `O=C1Nc2c(cc(-c3ccccc3)c3c2CN(CC2CC2)CC3)C1=NO` [8-cyclopropylmethyl-5-phenyl-6,7,8,9-tetrahydro-1H-pyrrolo-[3,2-h]-isoquinoline-2,3-dione-3-oxime], the IC50 is under 1000 nM.

For the compound `CCN1CCc2c(-c3ccccc3)cc3c(c2C1)N(C)C(=O)C3=NO` [8-ethyl-5-phenyl-6-7-8-9-tetrahydro-1-methyl-pyrrolo-[3,2-h]-isoquinoline-2,3-dione-3-oxim], the IC50 is under 1000 nM.

Take `COc1ccccc1-c1cc2c(c3c1CCN(C)C3)NC(=O)/C2=N\O` [8-methyl-5-(2-methoxyphenyl)-6-7-8-9-tetrahydro-1-H-pyrrolo-[3.2-h]-isoquinoline-2,3-dione-3-oxim]: the IC50 was under 1000 nM.

Staying with this data set, now noted: extracellular pH drop from 7.4 to 6.5, group IC50 below 10 μM (of from 1 μM to 10 μM), read-out: IC50, inhibition of the proton activated response.
With `COc1ccc(-c2cc3c(c4c2CCN(C)C4)NC(=O)C3=NO)cc1` [8-methyl-5-(4-methoxyphenyl)-6-7-8-9-tetrahydro-1-H-pyrrolo-[3.2-h]-isoquinoline-2,3-dione-3-oxim], the IC50 fell in the range of 1000 to 10000 nM.

Turning to `COC(=O)CN1CCc2c(-c3ccccc3)cc3c(c2C1)NC(=O)C3=NO` [8-methoxycarbonylmethyl-5-phenyl-6,7,8,9-tetrahydro-1H-pyrrolo-[3,2-h]-isoquinoline-2,3-dione-3-oxime], the concentration for half-maximal inhibition (IC50) lay within 1000 to 10000 nM.

On to `CCN1CCc2c(-c3ccccc3)cc3c(c2C1)N(C)C(=O)C3=NOC` [8-ethyl-5-phenyl-6-7-8-9-tetrahydro-1-methyl-pyrrolo-[3,2-h]-isoquinoline-2,3-dione-3-O-methyloxim], for which the IC50 lay in the range of 1000 to 10000 nM.

Take `O=C1Nc2c(cc(-c3ccccc3)c3c2CCCC3)/C1=N/O` [5-phenyl-6-7-8-9-tetrahydro-1-H-pyrrolo-[3.2-h]-naphthalene-2,3-dione-3-oxim]: the half-inhibitory concentration (IC50) lay in the range of 1000 to 10000 nM.

In the case of `O=C1Nc2c(cc(-c3ccc(Cl)cc3)c3c2CCCC3)C1=NO` [5-(4-chlorophenyl)-6-7-8-9-tetrahydro-1-H-pyrrolo-[3.2-h]-naphthalene-2,3-dione-3-oxim], the concentration for half-maximal inhibition (IC50) fell in the range of 1000 to 10000 nM.

As for `CN1CCc2c(-c3ccc([N+](=O)[O-])cc3)cc3c(c2C1)NC(=O)/C3=N\O` [8-methyl-5-(4-nitrophenyl)-6,7,8,9-tetrahydro-1H-pyrrolo-[3,2-h]-isoquinoline-2,3-dione-3-oxim], the IC50 fell in the range of 1000 to 10000 nM.

`C#CCN1CCc2c(-c3ccccc3)cc3c(c2C1)NC(=O)C3=NO` [8-(2-propynyl)-5-phenyl-6,7,8,9-tetrahydro-1H-pyrrolo-[3,2-h]-isoquinoline-2,3-dione-3-oxime]: the IC50 lay within 1000 to 10000 nM.

Tested on in a further data set: not given
Assay: not given
Conditions: not given
Broadly, the melting point is the temperature of the solid-liquid transition. Take `O=C1Nc2c(cc(-c3ccccc3)c3c2CN(Cc2ccccc2)CC3)C1=NO` [8-benzyl-5-phenyl-6-7-8-9-tetrahydro-1H-pyrrolo-[3,2-h]-isoquinoline-2,3-dione-3-oxim]: the melting point is 160 °C (dec.).

Take `C#CCN1CCc2c(-c3ccccc3)cc3c(c2C1)NC(=O)C3=NO` [8-(2-propynyl)-5-phenyl-6,7,8,9-tetrahydro-1H-pyrrolo-[3,2-h]-isoquinoline-2,3-dione-3-oxime]: the melting point is 170 °C (dec.).

In the case of `O=C1Nc2c(cc(-c3ccccc3)c3c2CN(CC2CC2)CC3)C1=NO` [8-cyclopropylmethyl-5-phenyl-6,7,8,9-tetrahydro-1H-pyrrolo-[3,2-h]-isoquinoline-2,3-dione-3-oxime], the melting point is 170 °C (dec.).
